Experimental data published in US20090185973A1, “METHODS, COMPOSITIONS, UNIT DOSAGE FORMS, AND KITS FOR PHARMACOLOGIC STRESS TESTING WITH REDUCED SIDE EFFECTS” (ADENOBIO N.V., priority 2008, published 2009).
Where “and” joins values, the source holds several entries; their conditions need not be identical. Equal entries are not always repeated. Where two headings read alike, the source gives them in different places.

Key:
[1] = test system: patients suffering from ischemic heart disease; assay: Transthoracic doppler echocardiography (TTDE) blood flow velocity in LAD, sequential administration (Example 1); type: in vivo, human; conditions: mean; for Mean velocity Min / Peak velocity Min: at rest (basal); for Mean velocity Max / Peak velocity Max: under stress
Protocol: In the combined administration, each of the two agents was administered at a dosage lower than its clinically preferred dosage when used as a single agent for myocardial perfusion imaging. Effects were measured using noninvasive transthoracic doppler echocardiography (TTDE).
Primary efficacy end-points were peak and mean diastolic flow velocities (measured as reflecting coronary blood flow values). The secondary end-point was patient tolerance to the procedure. The protocol was designed as follows.
Forty (40) consecutive patients suffering from ischemic heart disease were enrolled. Each patient served as their own control.
[…] Total doses are between about 4-6% of the lowest single-agent total dose of dipyridamole (i.e., 0.56 mg/kg, infused over a total of 4 minutes).
This dose is half the standard single-agent dosage rate of 140 μg/kg/min.

[2] = test system: patients suffering from ischemic heart disease; assay: Tolerance: occurrence and severity of adverse events (Example 1); type: in vivo, human
From the text: Cumulative results on the severity of the three subjective symptoms of the composite (chest pain, dyspnea, flushing) rated from 0 to 30. Cumulative results on the severity of the three subjective symptoms of the composite (chest pain, dyspnea, flushing) rated from 0 to 30.

patients [3] = type: in vivo, human
coronary patients [4] = assay: SPECT imaging study, summed difference scores (Example 2, Phase II); type: in vivo, human; set-up: key: SDS = SSS − SRS; summed 17-segment scores, each segment 0–4; conditions: Series I sequential: SC = dipyridamole 40 μg/kg bolus then adenosine 70 μg/kg/min 4 min; Adenoscan 140 μg/kg/min; 10 patients
From the text: The study was a mono-center, single-blind, 2-arm, cross-over trial.
Only those patients in whom an ischemic zone was detected were declared eligible for the second test, and were enrolled in the study if other inclusion criteria were satisfied.
SPECT images were acquired as per the standard approach performed the preceding week.
Since thallium is currently deemed the best isotope to test myocardial viability at rest, and sestamibi the best isotope to detect myocardial defects under stress conditions, a dual isotope myocardial scintigraphy technique was used for this study. The isotope was injected after a 3 minute infusion with Adenoscan or after a 2.5 minute infusion with the combination. […]
Randomization of SPECT images, and their analysis by two blinded readers, took place every 10 patients. Anonymous and randomized images were assessed using the standard 17-segment model and the semi-quantitative visual score method on a 5-point scale (from 0 to 4). An additional totally computerized quantitative method was performed using the validated CardioGam software (Segami Corp.). All images were interpreted and quantified automatically by the software calculation package. […]
Summed stress scores (with Adenosine or with Adenosoft) were defined as SSS, summed rest scores (Thallium) as SRS and summed difference scores as SDS=SSS-SRS. […] If >2, images were read again by a third independent expert. […]

coronary patients [5] = assay: TTDE coronary reserve study, concurrent administration for two minutes (Example 3); type: in vivo, human; conditions: 31 patients
From the text: (§1) Primary efficacy end-points were peak and mean diastolic flow velocities (their measurements reflect coronary blood flow values). The secondary end-point was patient's tolerance to the procedure.

coronary patients [6] = assay: Tolerance, severity of main symptoms (Example 3); type: in vivo, human
From the text: as §1

patients [7] = assay: Priming dose effect with the sequential administration mode (Example 5); type: in vivo, human; conditions: N = 10
From the text: Again there was no difference between the two methods for both peak and mean velocities.

patients [8] = conditions: most frequently reported adverse effects with adenosine; cited from earlier work
[9] = before infusion, DIP5: SC = dipyridamole 28 μg/kg + adenosine 70 μg/kg/min, ADE = adenosine 140 μg/kg/min, 30 patients
[10] = DIP4: SC = dipyridamole 35 μg/kg + adenosine 70 μg/kg/min, ADE = adenosine 140 μg/kg/min, 5 patients
[11] = DIP6: SC = dipyridamole 23 μg/kg + adenosine 70 μg/kg/min, ADE = adenosine 140 μg/kg/min, 5 patients
[12] = DIP4: SC = dipyridamole 35 μg/kg IV bolus then adenosine 70 μg/kg/min, ADE = adenosine alone 140 μg/kg/min, 5 patients
[13] = DIP5: SC = dipyridamole 28 μg/kg IV bolus then adenosine 70 μg/kg/min 3 min, ADE = adenosine alone 140 μg/kg/min 3 min, 30 patients
[14] = DIP6: SC = dipyridamole 23 μg/kg IV bolus then adenosine 70 μg/kg/min, ADE = adenosine alone 140 μg/kg/min, 5 patients
[15] = cumulated, all 40 patients: SC = dipyridamole 23, 28 or 35 μg/kg bolus then adenosine 70 μg/kg/min, ADE = adenosine alone 140 μg/kg/min
[16] = DIP4 (n = 5), dipyridamole 35 μg/kg
[17] = DIP5 (n = 30), dipyridamole 28 μg/kg
[18] = DIP6 (n = 5), dipyridamole 23 μg/kg
[19] = TOTAL (n = 40), all dipyridamole doses
[20] = all 40 patients, ADE 140 μg/kg/min, All SC (DIP 4/5/6)
[21] = DIP dose 28 μg/kg, ADE 140 μg/kg/min
[22] = DIP dose 35 μg/kg, ADE 140 μg/kg/min, listed as ADE
[23] = DIP dose 40 μg/kg, ADE 140 μg/kg/min, listed as ADE
[24] = Delta = peak-BL, concurrent dipyridamole 10 + adenosine 70 μg/kg/min 2 min vs adenosine alone
[25] = concurrent dipyridamole 10 + adenosine 70 μg/kg/min 2 min vs adenosine alone
[26] = adenosine 70 μg/kg/min + dipyridamole 10 μg/kg/min vs adenosine 140 μg/kg/min, 2 min

Nc1ncnc2c1ncn2[C@@H]1O[C@H](CO)[C@@H](O)[C@H]1O [adenosine]
Mean velocity Min [1, 9]: 23.1 cm/s | Peak velocity Min [1, 9]: 30.6 cm/sec | Mean velocity Min [1, 10]: 22.2 cm/s | Peak velocity Min [1, 10]: 28 cm/sec | Mean velocity Min [1, 11]: 28.2 cm/s | Peak velocity Min [1, 11]: 37.6 cm/sec | Mean velocity Min ([1]; cumulated, all 40 patients): 23.7 cm/s | Peak velocity Min ([1]; cumulated, all 40 patients): 31.2 cm/sec | Mean velocity Max [1, 12]: 60.4 cm/s | Peak velocity Max [1, 12]: 80 cm/sec | Mean velocity Max [1, 13]: 61.4 cm/s | Peak velocity Max [1, 13]: 82.6 cm/sec | Mean velocity Max [1, 14]: 80.2 cm/s | Peak velocity Max [1, 14]: 107 cm/sec | Mean velocity Max [1, 15]: 63.6 cm/s | Peak velocity Max [1, 15]: 85.3 cm/sec | Severity of dyspnea [2, 16]: 1.4 ± 1.95 | Severity of flushing [2, 16]: 2.9 ± 2.88 | Severity of chest pain ([2]; DIP4 (n = 5): SC dipyridamole 35 μg/kg + adenosine 70 μg/kg/min vs adenosine alone 140 μg/kg/min): 1.2 ± 2.68 | Severity of dyspnea [2, 17]: 2.33 ± 2.59 | Severity of flushing [2, 17]: 2.35 ± 2.53 | Severity of chest pain ([2]; DIP5 (n = 30): SC dipyridamole 28 μg/kg + adenosine 70 μg/kg/min vs adenosine alone 140 μg/kg/min): 1.12 ± 1.95 | Severity of dyspnea [2, 18]: 5 ± 3.08 | Severity of flushing [2, 18]: 3.2 ± 3.42 | Severity of chest pain ([2]; DIP6 (n = 5): SC dipyridamole 23 μg/kg + adenosine 70 μg/kg/min vs adenosine alone 140 μg/kg/min): 0 ± 0 | Severity of chest pain [2, 19]: 0.99 ± 1.93 | Severity of dyspnea [2, 19]: 2.55 ± 2.71 | Severity of flushing [2, 19]: 2.52 ± 2.63 | Chest pain, frequency [2, 20]: 22.5% | Dyspnea, # patients reporting events [2, 20]: 20 | Dyspnea, frequency [2, 20]: 50% | Flushing, # patients reporting events [2, 20]: 21 | Flushing, frequency [2, 20]: 52.5% | Chest pain, # patients reporting events ([2]; all 40 patients, ADE adenosine alone 140 μg/kg/min, All SC (DIP 4/5/6) dipyridamole 23, 28 or 35 μg/kg + adenosine 70 μg/kg/min): 9 | PV Max, individual patient (patients [3]; DIP dose 28 μg/kg bolus alone, ADE 140 μg/kg/min 3 min): 84 cm/sec | MV Max, individual patient (patients [3]; [21]): 64 cm/s | MV Min, individual patient (patients [3]; [21]): 20 cm/s | PV Min, individual patient (patients [3]; [21]): 27 cm/sec | PV Max, individual patients (patients [3]; DIP dose 35 μg/kg bolus alone, ADE 140 μg/kg/min 3 min, listed as ADE): 88 cm/sec and 84 cm/sec | MV Max, individual patients (patients [3]; [22]): 71 cm/s and 61 cm/s | MV Min, individual patients (patients [3]; [22]): 21 cm/s and 23 cm/s | PV Min, individual patients (patients [3]; [22]): 25 cm/sec and 32 cm/sec | PV Max, individual patients (patients [3]; DIP dose 40 μg/kg bolus alone, ADE 140 μg/kg/min 3 min, listed as ADE): 92 cm/sec and 112 cm/sec | PV Min, individual patients (patients [3]; DIP dose 40 μg/kg, ADE 140 μg/kg/min): 33 cm/sec | MV Max, individual patients (patients [3]; [23]): 67 cm/s and 86 cm/s | MV Min, individual patients (patients [3]; [23]): 23 cm/s and 25 cm/s | SDS (summed difference scores), individual patients (coronary patients [4]): 5 (5×) and 4 (2×) and 14 and 13 and 7 | Delta mean velocity (coronary patients [5]; [24]): 41.5 ± 15.3 | Delta peak velocity (coronary patients [5]; [24]): 54.4 ± 20.5 | Peak velocity at baseline (coronary patients [5]; at rest): 33.0 ± 12.9 | Mean velocity at baseline (coronary patients [5]; at rest, concurrent dipyridamole 10 μg/kg/min + adenosine 70 μg/kg/min 2 min vs adenosine alone 140 mg/kg/min (so in the source)): 25.2 ± 8.9 | Coronary reserve assessment using mean velocity (coronary patients [5]; [25]): 2.79 ± 0.90 | Coronary reserve assessment using peak velocity (coronary patients [5]; [25]): 2.82 ± 0.96 | Patients who experienced thoracic discomfort (coronary patients [6]; Example 3 series): 4 patients | Severity of chest pain (coronary patients [6]; [26]): 0.68 ± 1.87 | Severity of dyspnea (coronary patients [6]; [26]): 3.64 ± 3.67 | Severity of flushing (coronary patients [6]; [26]): 4.50 ± 3.15 | Return to BL, individual patients (patients [7]; ADE 140 μg/kg/min vs C sequential (Dip 40 μg/kg + Ade 70 μg/kg/min), listed as ADE): 30 seconds (2×) and 60 seconds (3×) and 50 seconds and 35 seconds (2×) and 40 seconds and 28 seconds | Time to peak, individual patients (patients [7]; ADE 140 μg/kg/min vs C sequential (Dip 40 μg/kg bolus + Ade 70 μg/kg/min over 2 minutes), listed as ADE): 70 seconds and 50 seconds (2×) and 75 seconds and 60 seconds (2×) and 35 seconds and 38 seconds and 90 seconds and 40 seconds | Return to BL, Mean (patients [7]; sequential administration): 43 s | Return to BL, Total (patients [7]; sequential administration): 428 s | Time to peak, Mean (patients [7]; sequential administration): 57 s | Time to peak, Total (patients [7]; sequential administration): 568 s | Frequency of chest pain or chest discomfort (patients [8]): 40% | Frequency of gastrointestinal discomfort (patients [8]): 13% | Frequency of throat or neck or jaw discomfort (patients [8]): 15%
